According to patent US20120116069A1, “GLUCOSE METABOLISM-IMPROVING AGENT AND GLUCOSE METABOLISM-IMPROVING COMPOSITION” (LION CORPORATION, priority 2009, published 2012):

Tested on: model mice of hyperglycemia (KKAy mice)
Assay: Blood sugar level of model mice of hyperglycemia bred five days on PT- or PD-containing high fat diet
Format: in vivo, mouse
Conditions: for Blood sugar level (post-breeding): after five days; for Blood sugar level (initial value): before breeding
Text: Panaxatriol (PT) (product of LKT Laboratories, Inc.) was mixed with a commercially available high fat diet (trade name: Quick Fat, product of CLEA Japan, Inc.) in amounts shown in the following Table 1. Each of the thus-prepared feeds was given ad libitum to model mice of hyperglycemia (KKAy mice (product of CLEA Japan, Inc.), eight weeks old, 5 mice/group) to breed them for five days (hereinafter these groups may be referred to as “PT-containing group”). Mice of a control group were given a panaxatriol (PT)-free feed (hereinafter this group may be referred to as “PT-free group”). The blood sugar level was measured at 10 a.m. before breeding of the panaxatriol (PT)-containing high fat diet (initial value) and after breeding thereof (post-breeding). […] GB SENSOR (product of Sanko Junyaku Co., Ltd.) was used for the measurement of the blood sugar level. The values shown in the following Table 1 are calculated on the basis of the average value of two values obtained by measuring each individual twice for the postprandial blood sugar level. […] Panaxadiol (PD) (product of LKT Laboratories, Inc.) was mixed with a commercially available high fat diet (trade name: Quick Fat, product of CLEA Japan, Inc.) in amounts shown in the following Table 2. Each of the thus-prepared feeds was given ad libitum to model mice of hyperglycemia (KKAy mice (product of CLEA Japan, Inc.), eight weeks old, 5 mice/group) to breed them for five days (hereinafter these groups may be referred to as “PD-containing group”). Mice of a control group were given a panaxadiol (PD)-free feed (hereinafter this group may be referred to as “PD-free group”). The blood sugar level was measured at 10 a.m. before breeding of the panaxadiol (PD)-containing high fat diet (initial value) and after breeding thereof (post-breeding). […] GB SENSOR (product of Sanko Junyaku Co., Ltd.) was used for the measurement of the blood sugar level. The values shown in the following Table 2 are calculated on the basis of the average value of two values obtained by measuring each individual twice for the postprandial blood sugar level.

[1] = 0.0001% by mass in high fat diet ad libitum
[2] = 0.001% by mass in high fat diet ad libitum
[3] = 0.01% by mass in high fat diet ad libitum
[4] = group 0.0001% by mass in high fat diet
[5] = group 0.001% by mass in high fat diet
[6] = group 0.01% by mass in high fat diet

Row | SMILES | Blood sugar level (post-breeding) [1] [mg/dL] | Blood sugar level (post-breeding) [2] [mg/dL] | Blood sugar level (post-breeding) [3] [mg/dL] | Blood sugar level (initial value) [4] [mg/dL] | Blood sugar level (initial value) [5] [mg/dL] | Blood sugar level (initial value) [6] [mg/dL]
1 | CC1(C)CCC[C@](C)([C@H]2CC[C@]3(C)[C@@H]2[C@H](O)C[C@@H]2[C@@]4(C)CC[C@H](O)C(C)(C)[C@@H]4CC[C@]23C)O1 [PD, panaxadiol] | 404 ± 17 | 323 ± 56 | 274 ± 34 | 454 ± 38 | 451 ± 34 | 454 ± 32
2 | CC1(C)CCC[C@](C)([C@H]2CC[C@]3(C)[C@@H]2[C@H](O)C[C@@H]2[C@@]4(C)CC[C@H](O)C(C)(C)[C@@H]4[C@@H](O)C[C@]23C)O1 [PT, panaxatriol] | 401 ± 15 | 318 ± 58 | 265 ± 39 | 455 ± 39 | 451 ± 34 | 451 ± 38
